Patent US12478081B2, “Application of aspartic acid derivative in preparing animal feed additive” (ANIPHA TECHNOLOGIES PTY LTD, priority 2018, dated 2025)
Marks after values point to notes of the source that are not given here.

Columns and labels:
weaned piglets = assay: Breeding test: production performance of weaned piglets; type: in vivo, Duroc×Landrace×Yorkshire cross-bred weaned piglets; conditions: for ADFI (g/d*each pig) / ADG (g/d*each pig) / FCR: weaned piglets, 45 ppm in basal daily ration, 40 days; for increase of the average daily gain of the test pigs: compared with the control group, not significant
Description: From 95 litters of 28±2 days old Duroc×Landrace×Yorkshire cross-bred weaned piglets, 360 clinically healthy piglets with similar body weights were selected as test pigs, which were randomly divided into 12 groups, with 3 replications per group and 10 pigs (half of male and female) per replication. The piglets were attracted to the food trough at the age of 7 days, and the hog house for 28-day-old weaned pigs has a cement floor, steel fence, good ventilation, and suitable temperature. The pigpens and utensils were sterilized before the test.
During the test period, the test pigs were free-stall housed in the same pigpen under the same feeding and management conditions, and were free to drink water and eat feed. The hog house was cleaned once a day, and the floor is washed once every three days to maintain clean and hygienic conditions. The test pigs were fed three times a day. The test groups include control and test groups. Group I is the control group, in which only the basal daily ration was fed to the piglets. […] 1000 ppm of a the aspartic acid derivative metal ion salt was added into the basal daily ration for the piglets in the groups VIII-XII, as shown in Table 2. No other antioxidant ingredients or growth promoters were added for the test groups during the entire feeding process. The test period was 40 days.
The test pigs were weighed during 7:00 to 9:00 in the morning of Day 0 and Day 40 after the start of the test. During the test period, the feed intake and health status of the piglets were observed every day, the remaining daily ration was weighed, the feed consumption was recorded, and the average daily feed intake (ADFI, g/d*each pig), the average daily gain (ADG, g/d*each pig), and the feed conversion ratio (FCR) were calculated. Calculation formulas are as follows: […]
(§1) The test data was statistically analyzed using SPSS18 software. First, a one-way analysis of variance (ANOVA) was performed on the data. If the difference between treatments is significant, Duncan's method was used for multiple comparisons, and the significance level was 0.05.

broilers = assay: Breeding test: production performance of broilers; type: in vivo, yellow-feathered broilers; conditions: for effect on the average daily gain of the test broilers (in words): 300 ppm, compared with the control group; for ADFI (g/d*each broiler) / ADG (g/d*each broiler) / FCR: broilers, 300 ppm in basal daily ration, 20 days
Description: The test adopted a single-factor random design. 420 1-day-old yellow-feathered broilers with similar body weights and having an average weight of 50 g were selected and randomly divided into 7 treatment groups, with 3 replications per group and 20 yellow-feathered broilers (half of male and female) per replication. The poultry houses and utensils were sterilized before the test. During the test period, the Jingbai laying hens were cage cultured in the same laying henhouse under the same feeding and management conditions. The basal daily ration was mainly corn-soybean meal, and no other antioxidant ingredients or growth promoters were added additionally during the entire feeding process. The test groups include a control group and test groups I-VII. The basal daily ration was fed for the control group I only, and 300 ppm of different aspartic acid derivatives were added into the basal daily ration for the test groups II-VII, as shown in Table 5. The test period was 20 days. The test yellow-feathered broilers were free to drink water and eat feed, and were fed twice a day. Taking each repetition as a unit, the test broilers were weighed at the age of 21 days (where provisioning of feeds was stopped for 12 hours, but provisioning of water was not stopped), the feed consumption of the test broilers were calculated, and the average daily feed intake (ADFI, g/d*each broiler), the average daily gain (ADG, g/d*each broiler) and the feed conversion ratio (FCR) were calculated for the test broilers of each group. Calculation formulas are as follows: […]
as §1

grass carps = assay: Use of aspartic acid derivatives in feeds for fish (grass carp breeding test); type: in vivo; conditions: for effect on weight gain of grass carps (in words): 3000 ppm, compared with the control group; for Average final weight (g) / FCR / Weight gain (%): grass carps, 3000 ppm in feed, 8 weeks
Protocol: Test fish: The test fishes used were healthy and lively grass carp fingerlings with uniform size, which were fed in large cages for 4 weeks before being used for formal breeding test. The experimental system was a small floating cage (specification: 1.1×1.1×1.1 m^3), each small floating cage being equipped with an aeration head, providing aeration 24 h a day. Both the small floating cage and the temporary cage were placed in a 3500 m^2 pond of the test field, the depth of the pond was about 1.5 m, and the water of the pond was fully aerated in the bottom of the pond. 560 grass carps that were hungry for 1 day were randomly divided into 7 groups, with 4 replications per group and 20 grass carps per replication. By taking each replication as a unit, all of the grass carps were weighed, and then placed in 28 cages and fed with test feeds containing different test samples at the same content level.
Test feeds: The feeds for the test were self-prepared based on the formulations in Table 6, and different test samples were added at the same content level for different test groups according to Table 7, respectively.
The feed raw materials used were ground by ultrafine grinding and fed into a puffing machine produced by Jiangsu Muyang Group Co., Ltd. to make 3 mm floating puffed feed, where the mold clearing temperature was 130° C., 3% soybean oil was sprayed using an oil spraying equipment, and the obtained feed was sealed and stored in a cool place for later use.
Test management: The test adopted controlled artificial feeding, and the feeding amount was adjusted once a week. The feeding levels for all the groups (based on the initial fish weight) were exactly the same, and the grass carps were fed twice a day (7:30 and 15:00). The total feeding amount was 580 g/replication test group. The test period was 8 weeks. During the test, the water quality was regularly monitored. The water temperature during the whole breeding process was 26.88±3.08° C., DO>5.0 mg O L^−1, pH 7.8, ammonia nitrogen<0.50 mg N L^−1, nitrite nitrogen<0.05 mg N L^−1.
Parameter statistics: During the test, after the provisioning of feeds has been stopped for 1 day, fishes in each cage were weighed as a whole, and the weight gain (WG, %) and the feed conversion ratio (FCR) were calculated. Calculation formulas are as follows:
[formula] [formula] (3) Test Results

| SMILES | ADFI (g/d*each pig) (weaned piglets) | ADG (g/d*each pig) (weaned piglets) | FCR (weaned piglets) | effect on the average daily gain of the test broilers (in words) (broilers) | ADFI (g/d*each broiler) (broilers) | ADG (g/d*each broiler) (broilers) | FCR (broilers) | effect on weight gain of grass carps (in words) (grass carps) | Average final weight (g) (grass carps) | FCR (grass carps) | Weight gain (%) (grass carps) | increase of the average daily gain of the test pigs (weaned piglets) [%] |
| --- | --- | --- | --- | --- | --- | --- | --- | --- | --- | --- | --- | --- |
| CCOC(=O)CC(NC(N)=O)C(=O)OCC (racemic) [Compound 2, diethyl N-carbamoyl-DL-aspartate] | 374 ± 11^b g/d*each pig | 176 ± 2^d g/d*each pig | 2.13 ± 0.05 | the most significant | 40.05 ± 0.81^d g/d*each broiler | 16.81 ± 0.68^b g/d*each broiler | 2.39 ± 0.05^b | significant improvement effect | 772.0 ± 6.3^b g | 1.650 ± 0.008^b | 83.74 ± 1.53^b % |  |
| NC(=O)NC(CC(=O)O)C(=O)O (racemic) [Compound 1, N-carbamoyl-DL-aspartic acid] | 315 ± 14^a g/d*each pig | 145 ± 10^abc g/d*each pig | 2.18 ± 0.05 | the most significant | 38.83 ± 0.53 g/d*each broiler | 16.59 ± 0.14^b g/d*each broiler | 2.34 ± 0.03^b |  | 774.5 ± 4.8^b g | 1.650 ± 0.011^b | 83.19 ± 1.41^b % | 7.0 |
| NCCCC(=O)NC(CC(=O)O)C(=O)O (racemic) [Compound 9, N-(4-aminobutyryl)-DL-aspartic acid] | 311 ± 18^a g/d*each pig | 146 ± 4^abc g/d*each pig | 2.13 ± 0.06 |  | 37.92 ± 0.53^c g/d*each broiler | 15.84 ± 0.10^b g/d*each broiler | 2.39 ± 0.04^b |  | 781.8 ± 4.4^b g | 1.662 ± 0.008^b | 80.76 ± 1.52% | 8.1 |
| NCC(=O)NC(CC(=O)O)C(=O)O (racemic) [Compound 8, N-glycyl-DL-aspartic acid] | 305 ± 12^a g/d*each pig | 142 ± 1^ab g/d*each pig | 2.15 ± 0.07 |  | 36.05 ± 0.83^b g/d*each broiler | 14.48 ± 0.24^b g/d*each broiler | 2.49 ± 0.03^ab | significant improvement effect | 778.2 ± 4.3^b g | 1.671 ± 0.008^b | 80.62 ± 1.46% | 5.2 |
| NCCCCCCCCCC(=O)NC(CC(=O)O)C(=O)O (racemic) [Compound 10, N-(10-aminodecanoyl)-DL-aspartic acid] | 321 ± 7^a g/d*each pig | 150 ± 1^bc g/d*each pig | 2.14 ± 0.06 |  | 34.82 ± 0.64^a g/d*each broiler | 14.40 ± 0.15^b g/d*each broiler | 2.42 ± 0.04^b |  | 781.0 ± 5.1^b g | 1.653 ± 0.009^b | 81.58 ± 0.96% |  |
| NCCCCCCCCCCCCCC(=O)NC(CC(=O)O)C(=O)O (racemic) [Compound 11, N-(14-aminomyristoyl)-DL-aspartic acid] | 322 ± 16^a g/d*each pig | 150 ± 4^bc g/d*each pig | 2.14 ± 0.05 |  | 36.70 ± 0.54^ac g/d*each broiler | 15.02 ± 0.13^b g/d*each broiler | 2.44 ± 0.04^b |  | 769.2 ± 4.5^ab g | 1.671 ± 0.008^b | 82.32 ± 1.24% |  |
